Test results reported in patent US10238670B2, “9-aminomethyl minocycline compounds and methods of use thereof in urinary tract infection (UTI) treatment” (Paratek Pharmaceuticals, Inc., priority 2016, dated 2019).
≈ marks a conversion by molar mass, not a printed value. Read-outs that look alike come from different tables or passages of the source.

Experiments:
[1] = In vitro plasma protein binding (ultrafiltration), monkey plasma; assay type: in vitro ADME, monkey (Cynomolgus); conditions: 10-10,000 ng/mL, mean±SD, read-out: mean unbound protein fraction (fu) in plasma
Description: (§1) For human binding studies, plasma was obtained from the blood of three healthy male volunteers. Plasma was defrosted from storage at -20° C. before use, and pools of human plasma were used for all studies. Plasma from mouse, rat, and monkey was supplied by Harlan Laboratories Ltd. (Netherlands), Milan […], Switzerland) and Centre de Primatologie ULP (France), respectively. Protein binding was measured using an ultrafiltration method. To asses the suitability of ultrafiltration, the recovery and free permeation of [^14C]-labelled Compound 1 in PBS buffer were investigated. […] Three 1 mL aliquots per concentration were introduced into […]® devices and spun for 1 min at 2000 g (filtrate ≤500 μL). Samples of the spiked solutions, the filtrate and retentate were quantified by LSC; volumes were determined by weighing. The free permeation of the test compound in PBS was evaluated as follows: Ratio=[Cuf/Cr] with Cuf being the concentration in the ultrafiltrate (ng/mL) and Cr the concentration in the retentate (ng/mL). […] Specifically, concentrations of Compound 1 was determined by an UPLC-MS/MS method. […] Standards and quality control samples were prepared on the day of analysis by adding a 20 μL aliquot of an appropriate standard or QC spiking solution in methanol. A 25 μL aliquot of the internal standard (at 200 ng/mL in methanol) was added to each well except blanks. […] Samples were processed using protein precipitation. A 0.5 mL aliquot of an acetonitrile/ethanol/acetic acid mixture (90:10:0.1, v:v:v) was added to each sample; samples were mixed using a vortex mixer for 10 minutes, and centrifuged 3800 rpm (approximately 2500×g) for 10 min at 10° C. […] The ions monitored for Compound 1 was the parent [M+H]^+ ion at m/z 557.3.0; the product ions at m/z 453.4. […] The quantification was performed using Analyst software and Watson LIMS version 7.2.0.01. Concentrations in QC and study samples were calculated from the resulting peak area ratios and interpolation from the regression equations of the respective calibration curves. The lower limit of quantitation was 5.0 ng/mL for Compound 1.

[2] = test system: plasma proteins; assay: as above; assay type: in vitro ADME, monkey (Cynomolgus); conditions: 10-10,000 ng/mL
Description: as §1

[3] = test system: E. coli FQR; assay: In vitro MIC, 2010 surveillance isolates; assay type: cell-based, Escherichia coli; conditions: N=1264
[4] = test system: K. pneumoniae FQR; assay: In vitro MIC, 2010 surveillance isolates; assay type: cell-based, Klebsiella pneumoniae; conditions: N=412
[5] = test system: Ind+ Proteus spp; assay: In vitro MIC, 2010 surveillance isolates; assay type: cell-based; conditions: N=258
[6] = test system: S. marcescens; assay: In vitro MIC, 2010 surveillance isolates; assay type: cell-based; conditions: N=424
[7] = test system: P. aeruginosa; assay: In vitro MIC (Data from CMI 07); assay type: cell-based; conditions: N=22
[8] = test system: E. coli (Carbapenem Resistant); assay: Broth microdilution MIC against UTI pathogens (Example 4); assay type: cell-based; conditions: Escherichia coli; 25 isolates
Description: (§2) Antimicrobial activities of Compound 1 against a variety of common pathogens found in UTI were determined using a standard broth microdilution method (CLSI in Methods for Dilution Antimicrobial Susceptibility Tests for Bacteria That Grow Aerobically, Approved Standard M7-A8, Clinical and Laboratory Standards Institute, Wayne, Pa. (USA), 2011, incorporated herein by reference) with slight modifications.

[9] = test system: E. coli (ESBL phenotype); assay: as above; assay type: cell-based; conditions: Escherichia coli; 2,743 isolates
Description: as §2

[10] = test system: E. coli (non-ESBL phenotype); assay: as above; assay type: cell-based; conditions: Escherichia coli; 10,696 isolates
Description: as §2

[11] = complicated skin and skin structure infection; cited from earlier work
[12] = test system: human transporters and cytochrome P-450; conditions: cited from earlier work
[13] = test system: protein; conditions: cited from earlier work

Compound: CN(C)c1cc(CNCC(C)(C)C)c(O)c2c1C[C@H]1C[C@H]3[C@H](N(C)C)C(O)=C(C(N)=O)C(=O)[C@@]3(O)C(O)=C1C2=O [Compound 1, 9-[(2,2-dimethyl-propylamino)-methyl]-minocycline]
- fraction unbound [1]: 0.788 ± 0.0726
- Mean (SD) Bound Fraction [2]: 21.2 (7.26) %
- mean unbound protein fraction (fu) in plasma ([2]; mean±SD): 78.8±7.3%
- Cumulative % Inhibition at MIC ([3]; MIC 1 μg/ml): 64.4%
- Cumulative % Inhibition at MIC ([3]; MIC 2 μg/ml): 89.2%
- Cumulative % Inhibition at MIC ([3]; MIC 4 μg/ml): 97.7%
- Cumulative % Inhibition at MIC ([3]; MIC 8 μg/ml): 99.6%
- Cumulative % Inhibition at MIC ([3]; MIC 16 μg/ml): 99.9%
- Cumulative % Inhibition at MIC ([3]; MIC ≤0.5 μg/ml, listed as head image P00008): 29.6%
- Cumulative % Inhibition at MIC ([3]; MIC ≥32 μg/ml): 100%
- Cumulative % Inhibition at MIC ([4]; MIC 1 μg/ml): 15.3%
- Cumulative % Inhibition at MIC ([4]; MIC 2 μg/ml): 48.8%
- Cumulative % Inhibition at MIC ([4]; MIC 4 μg/ml): 72.6%
- Cumulative % Inhibition at MIC ([4]; MIC 8 μg/ml): 86.7%
- Cumulative % Inhibition at MIC ([4]; MIC 16 μg/ml): 92.7%
- Cumulative % Inhibition at MIC ([4]; MIC ≤0.5 μg/ml, listed as head image P00012): 1.2%
- Cumulative % Inhibition at MIC ([4]; MIC ≥32 μg/ml): 100%
- Cumulative % Inhibition at MIC ([5]; MIC 1 μg/ml): 0.8%
- Cumulative % Inhibition at MIC ([5]; MIC 2 μg/ml): 3.1%
- Cumulative % Inhibition at MIC ([5]; MIC 4 μg/ml): 26.0%
- Cumulative % Inhibition at MIC ([5]; MIC 8 μg/ml): 58.1%
- Cumulative % Inhibition at MIC ([5]; MIC 16 μg/ml): 73.3%
- Cumulative % Inhibition at MIC ([5]; MIC ≤0.5 μg/ml): 0%
- Cumulative % Inhibition at MIC ([5]; MIC ≥32 μg/ml): 100%
- Cumulative % Inhibition at MIC ([6]; MIC 1 μg/ml): 0.7%
- Cumulative % Inhibition at MIC ([6]; MIC 2 μg/ml): 20.3%
- Cumulative % Inhibition at MIC ([6]; MIC 4 μg/ml): 76.2%
- Cumulative % Inhibition at MIC ([6]; MIC 8 μg/ml): 91.0%
- Cumulative % Inhibition at MIC ([6]; MIC 16 μg/ml): 93.6%
- Cumulative % Inhibition at MIC ([6]; MIC ≤0.5 μg/ml, listed as head image P00017): 0%
- Cumulative % Inhibition at MIC ([6]; MIC ≥32 μg/ml): 100%
- Cumulative % Inhibition at MIC ([7]; MIC 1 μg/ml): 0%
- Cumulative % Inhibition at MIC ([7]; MIC 2 μg/ml): 0%
- Cumulative % Inhibition at MIC ([7]; MIC 4 μg/ml): 0%
- Cumulative % Inhibition at MIC ([7]; MIC 8 μg/ml): 0%
- Cumulative % Inhibition at MIC ([7]; MIC 16 μg/ml): 9.1%
- Cumulative % Inhibition at MIC ([7]; MIC ≤0.5 μg/ml, Data from CMI 07): 0%
- Cumulative % Inhibition at MIC ([7]; MIC ≥32 μg/ml): 100%
- MIC50 [8]: 1 µg/mL (≈ 1.8 µM)
- MIC90 [8]: 4 µg/mL (≈ 7.19 µM)
- MIC50 [9]: 1 µg/mL (≈ 1.8 µM)
- MIC90 [9]: 4 µg/mL (≈ 7.19 µM)
- MIC50 [10]: 0.5 µg/mL (≈ 0.898 µM)
- MIC90 [10]: 2 µg/mL (≈ 3.59 µM)
- clinical efficacy and tolerability [11]: comparable to linezolid
- potential for drug-drug interactions [12]: low potential for drug-drug interactions

Compound: CN(C)c1cc(NC(=O)CNC(C)(C)C)c(O)c2c1C[C@H]1C[C@H]3[C@H](N(C)C)C(O)=C(C(N)=O)C(=O)[C@@]3(O)C(O)=C1C2=O [Tigecycline]
- protein binding ([13]; 0.1 μg/mL, ultracentrifugation): 73%
- protein binding ([13]; 0.1 μg/mL, ultrafiltration): 71%
- protein binding ([13]; 1.0 μg/mL, ultracentrifugation): 79%
- protein binding ([13]; 1.0 μg/mL, ultrafiltration): 87%
- protein binding, Ultracentrifugation ([13]; Concentration 100 ng/mL): 73%
- protein binding, Ultrafiltration ([13]; Concentration 100 ng/mL): 71%
- protein binding, Ultracentrifugation ([13]; Concentration 1,000 ng/mL): 79%
- protein binding, Ultrafiltration ([13]; Concentration 1,000 ng/mL): 87%
